Patent US11718628B2, “SREBP inhibitors comprising a 6-membered central ring” (Capulus Therapeutics, LLC, priority 2018, dated 2023)
Like-named read-outs stand apart in the source and are kept apart here.

Experiments:
[1] = Log D by octanol/aqueous buffer partitioning; assay type: physicochemical; details: 1-octanol/aqueous buffer; pH 7.4, 1-octanol/buffer; read-out: LogD
Description: The Log D of selected compounds was evaluated by octanol/aqueous buffer partitioning. 500 μL of organic phase (1-octanol) was added to each well of a 2 mL deep well plate, followed by 500 μL of buffer and 15 μL of test compound in DMSO (0.15 mM). The plate was vortexed for 10 seconds and incubated at room temperature for 1 hr on a plate shaker at 200 rpm. After incubation, the samples were allowed to equilibrate for 20 min and then centrifuged at 4000 rpm for 30 min for complete phase separation. The distribution of test compound in buffer and octanol phase was analyzed by HPLC-UV. Log D=Log (Area of Octanol/Area of Buffer).

[2] = In vivo pharmacokinetic properties in rats (IV and PO); parameters: species or system male Sprague Dawley rats; details: male, Sprague Dawley, rat, plasma; for clearance: read-out: Intravenous Delivery (IV) CL; for Vd: read-out: Intravenous Delivery (IV) Vd; for bioavailability: PO 10 mg/kg vs IV 2 mg/kg, read-out: % F (Bioavailability of oral delivery); for Tmax: read-out: Oral Administration (PO) Tmax
How it was run: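 Male Sprague Dawley rats received 2.00 mg/kg IV via the tail vein, with plasma sampled from a cannulated jugular vein from 0.083 to 24 h. Oral dosing was 10 mg/kg in rats or C57BL/6J mice, sampled at 0.25-24 h by jugular cannula (rats) or retro-orbital plexus (mice).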

[3] = In vivo pharmacokinetic properties in mice (IV and PO); parameters: species or system C57BL/6J mice; details: C57BL/6J, mouse, in vivo
How it was run: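 Male C57BL/6J mice received 10 mg/kg orally; plasma sampled by retro-orbital capillary at 0.25–24 h. IV dosing described at 2.00 mg/kg via tail vein, plasma sampled 0.083–24 h.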

[4] = system: liver gene expression (ACACA, ACLY, FASN, LSS, PNPLA3); assay: Liver gene expression in mice after oral administration; assay type: in vivo; details: 30 mpk, vs vehicle
Description: (§1) The pharmacodynamic properties of selected compounds were evaluated in mice. The animals were housed in cages with clean bedding, and maintained and monitored for good health in accordance with Test Facility SOPs and at the discretion of the laboratory animal veterinarian. Certified rodent diet was provided. Food and water was available ad libitum. Environmental controls for the animal room were set to maintain a temperature of 22° C. to 25° C., humidity of 40-70% RH, and a 12-hour light/[…]. Normal healthy animals certified by the attending veterinarian were selected and acclimatized for minimum three days prior to initiation of study. Animals were identified with body markings.
(§2) Aliquots of the compounds being evaluated were weighed and triturated with 0.5% methylcellulose (with the addition of 5% N-methyl pyrrolidone when required to remove clumping, as for Z-806) to an appropriate dose concentration. Vials were labeled with the information about study number, test item, concentration and date of preparation. A description of appearance of formulation was recorded (e.g., color, turbidity, etc.). The composition of formulation vehicle was recorded. An aliquot of each dose solution was taken before the dosing began and after dosing was finished, and stored at approximately −20° C. or below for subsequent analysis. The animals were dosed orally through oral gavage needle, and time of dosing was recorded.
(§3) Liver Collection at 6 h or 24 h: Immediately after blood withdrawal for pharmacokinetic evaluation (at 6 or at 24 h), liver tissue was collected without perfusion. Animals were euthanized using carbon dioxide gas in a CO2 chamber. The whole blood was drained by cutting the both side jugular vein and abdominal aorta. The liver was separated out. All the liver samples were divided in two parts. The first part (200 mg approx.) was snap frozen using liquid nitrogen as soon as possible. These samples were immediately transferred to −80° C. for storage. The remaining part was weighed and used for bioanalysis.
RNA Processing and Gene Expression Analysis: Liver Tissue RNA was harvested with the RNEasy kit and 20-100 ng used to synthesize cDNA with random primers following the manufacturer's protocol. Quantitative PCR was performed on 1 pg to 100 ng cDNA for the following genes: ACACA, ACLY, FASN, LSS, PNPLA3. Gene expression levels were determined using ΔΔCT method comparing treated to vehicle treated samples as a baseline, and fold change calculated. The average value for all 5 genes above was averaged and termed to Total Fold Change The results from this evaluation are presented in Table 8.

[5] = Plasma and liver compound levels in mice after oral administration; assay type: in vivo; details: mouse, 30 mg/kg, 30 mpk
Description: as §1, §2
After dosing, the mice were anesthetized using gaseous anesthesia. Blood samples were collected through a capillary, guided in retro-orbital plexus, at 6 h or at 24 h. Approximately 100 uL of blood was collected from each mouse, in pre-labeled tubes. The collected blood was stored on ice prior to centrifugation. Blood samples were then centrifuged within 1 hour of collection to separate plasma. Centrifugation was conducted at 2500×g for 15 minutes at 4° C. The plasma was separated and transferred to pre-labeled micro-centrifuge tubes and promptly frozen at −80±10° C. until bioanalysis.
as §3

[6] = 10 mg/kg, heading: Oral Administration AUC0-last, PO, 10 mg/kg
[7] = IV, 2 mg/kg, read-out: Intravenous Delivery (IV) AUC0-last
[8] = IV, 2 mg/kg, read-out: Intravenous Delivery (IV) T1/2 (converted)
[9] = PO, 10 mg/kg, read-out: Oral Administration (PO) T1/2 (converted)

SMILES	AUC(0-t) [2, 6] [ng·h/mL]	AUC(0-t) [2, 7] [ng·h/mL]	clearance ([2]; IV, 2 mg/kg) [mL/min/kg]	half-life [2, 8] [min]	Vd ([2]; IV, 2 mg/kg) [L/kg]	bioavailability [2] [%]	half-life [2, 9] [min]	Tmax ([2]; PO, 10 mg/kg) [min]	melting point [°C]	other results
O=C(c1ccc(-c2cncc(-c3ccnc4c3OCCO4)c2)c(Cl)c1)N1CCC(O)CC1 [Compound Z-806, (3-chloro-4-(5-(2,3-dihydro-[1,4]dioxino[2,3-b]pyridin-8-yl)pyridin-3-yl)phenyl)(4-hydroxypiperidin-1-yl)methanone]	272	2630	12.8	122	2.26	2.1	150	19.8		LogD [1]: 1.98; bioavailability [3]: 58%; AUC(0-t) ([3]; iv, 2 mg/kg): 1540 ng·h/mL; Vd ([3]; iv, 2 mg/kg): 8.91 L/kg; clearance ([3]; iv, 2 mg/kg): 21 mL/min/kg; half-life ([3]; iv, 2 mg/kg): 293 min; AUC(0-t) ([3]; po, 3 mg/kg): 1370 ng·h/mL; Tmax ([3]; po, 3 mg/kg): 15 min; half-life ([3]; po, 3 mg/kg): 211 min; Total Gene FC Time (6 h) ([4]; 6 h): ++ (0.51-0.7509 = ++); Total Gene FC Time (24 h) ([4]; 24 h): +++ (0-0.509 = +++); concentration at 6 h ([5]; liver, read-out: Liver ng/mg (6 h)): > 1e+06 ng/g; concentration at 24 h ([5]; liver, read-out: Liver ng/mg 24 h): > 1e+06 ng/g; concentration at 6 h ([5]; plasma, read-out: Plasma ng/mL (6 h)): > 1000 ng/mL; concentration at 24 h ([5]; plasma, read-out: Plasma ng/mL (24 h)): > 1000 ng/mL
COc1c(-c2ccnc(C(C)(C)C)c2)cncc1-c1ccc(C(=O)N2CCC(O)CC2)cc1Cl [Compound Z-840, (4-(2′-(tert-butyl)-4-methoxy-[3,4′-bipyridin]-5-yl)-3-chlorophenyl)(4-hydroxypiperidin-1-yl)methanone]									105 to 109	
CC(C)(C)c1cc(-c2cncc(-c3ccc(C(=O)N4CCC(O)CC4)cc3)c2F)ccn1 [Compound Z-866, (4-(2′-(tert-butyl)-4-fluoro-[3,4′-bipyridin]-5-yl)phenyl)(4-hydroxypiperidin-1-yl)methanone]	151	1070	31.7	54.6	2.54	2.8	41.4	30	100 to 104	
